Experimental data taken from the supplement of paper PMC10307832.

How the values were obtained:
Assay in all cases: relative viability (nuclei count vs DMSO), 5 days (fraction); higher = more cells survive
EMC-BAC-2 = system: EMC-BAC-2
In short: (§1)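 Lung cancer cell lines were seeded in 1536-well plates and dosed by pin tool the next day, with either a single drug or a fixed anchor-drug dose combined with five library-drug doses (not always all listed) spaced in √10 steps. Five days later, one step fixed the cells and stained their nuclei (final 0.05% Triton X-100, 1% formaldehyde, 1 ug/ml Hoechst), and nuclei were counted on 4× images. Relative viability is the nuclei count in treated wells divided by the count in vehicle wells, and each value is the median of duplicate plates.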

HCC-366 = system: HCC-366
In short: as §1

NCI-H2170 = system: NCI-H2170
In short: as §1

PC-3 [JPC-3] = system: PC-3 [JPC-3]
In short: as §1

SK-MES-1 = system: SK-MES-1
In short: as §1

NCI-H23 = system: NCI-H23
In short: as §1

COR-L 105 = system: COR-L 105
In short: as §1

NCI-H596 = system: NCI-H596
In short: as §1

H3255 = system: H3255
In short: as §1

NCI-H1975 = system: NCI-H1975
In short: as §1

A-427 = system: A-427
In short: as §1

EKVX = system: EKVX
In short: as §1

NCI-H520 = system: NCI-H520
In short: as §1

NCI-H1563 = system: NCI-H1563
In short: as §1

LOU-NH91 = system: LOU-NH91
In short: as §1

NCI-H1666 = system: NCI-H1666
In short: as §1

NCI-H441 = system: NCI-H441
In short: as §1

NCI-H1755 = system: NCI-H1755
In short: as §1

NCI-H1734 = system: NCI-H1734
In short: as §1

ChaGo-K-1 = system: ChaGo-K-1
In short: as §1

LK-2 = system: LK-2
In short: as §1

Work on `Cc1sc2c(c1C)C(c1ccc(Cl)cc1)=N[C@@H](CC(=O)OC(C)(C)C)c1nnc(C)n1-2` [JQ1] + C[C@@H](Oc1cc(-c2cnn(C3CCNCC3)c2)cnc1N)c1c(Cl)ccc(F)c1Cl [Crizotinib] (partner 1 µM) yielded a relative viability (EMC-BAC-2; first compound 0.04 µM) of 0.737, a relative viability (EMC-BAC-2; first compound 0.1265 µM) of 0.651 and a relative viability (EMC-BAC-2; first compound 0.4 µM) of 0.504. The relative viability (EMC-BAC-2; first compound 1.265 µM) was 0.43, the relative viability (EMC-BAC-2; first compound 4 µM) was 0.315 and the relative viability (HCC-366; first compound 0.04 µM) was 0.457. The relative viability (HCC-366; first compound 0.4 µM) was 0.41, the relative viability (HCC-366; first compound 1.265 µM) was 0.243 and the relative viability (HCC-366; first compound 4 µM) was 0.103. It also gave a relative viability (NCI-H2170; first compound 0.04 µM) of 0.997, a relative viability (NCI-H2170; first compound 0.1265 µM) of 1.12 and a relative viability (NCI-H2170; first compound 0.4 µM) of 0.72. For the same compound, the relative viability (NCI-H2170; first compound 1.265 µM) was 0.599, the relative viability (NCI-H2170; first compound 4 µM) was 0.517 and the relative viability (PC-3 [JPC-3]; first compound 0.04 µM) was 1.06. The relative viability (PC-3 [JPC-3]; first compound 0.1265 µM) was 1.03, the relative viability (PC-3 [JPC-3]; first compound 0.4 µM) was 0.96 and the relative viability (PC-3 [JPC-3]; first compound 1.265 µM) was 0.851. The relative viability (PC-3 [JPC-3]; first compound 4 µM) was 0.512, the relative viability (SK-MES-1; first compound 0.04 µM) was 0.873 and the relative viability (SK-MES-1; first compound 0.1265 µM) was 0.77. For the same compound, the relative viability (SK-MES-1; first compound 0.4 µM) was 0.672, the relative viability (SK-MES-1; first compound 1.265 µM) was 0.467 and the relative viability (SK-MES-1; first compound 4 µM) was 0.295. For the same compound, the relative viability (NCI-H23; first compound 0.04 µM) was 0.441, the relative viability (NCI-H23; first compound 0.1265 µM) was 0.61 and the relative viability (NCI-H23; first compound 0.4 µM) was 0.304. The relative viability (NCI-H23; first compound 1.265 µM) was 0.163, the relative viability (NCI-H23; first compound 4 µM) was 0.154 and the relative viability (COR-L 105; first compound 0.04 µM) was 0.705. It also gave a relative viability (COR-L 105; first compound 0.1265 µM) of 0.25, a relative viability (COR-L 105; first compound 0.4 µM) of 0.403 and a relative viability (COR-L 105; first compound 1.265 µM) of 0.245. The relative viability (COR-L 105; first compound 4 µM) was 0.267, the relative viability (NCI-H596; first compound 0.04 µM) was 0.977 and the relative viability (NCI-H596; first compound 0.1265 µM) was 0.85. The relative viability (NCI-H596; first compound 0.4 µM) was 0.472, the relative viability (NCI-H596; first compound 1.265 µM) was 0.498 and the relative viability (NCI-H596; first compound 4 µM) was 0.432. For the same compound, the relative viability (H3255; first compound 0.04 µM) was 0.828, the relative viability (H3255; first compound 0.1265 µM) was 0.715 and the relative viability (H3255; first compound 0.4 µM) was 0.741. It also gave a relative viability (H3255; first compound 1.265 µM) of 0.316, a relative viability (H3255; first compound 4 µM) of 0.221 and a relative viability (NCI-H1975; first compound 0.04 µM) of 0.891. The relative viability (NCI-H1975; first compound 0.1265 µM) was 0.675, the relative viability (NCI-H1975; first compound 0.4 µM) was 0.483 and the relative viability (NCI-H1975; first compound 1.265 µM) was 0.3. The relative viability (NCI-H1975; first compound 4 µM) was 0.235, the relative viability (A-427; first compound 0.04 µM) was 0.997 and the relative viability (A-427; first compound 0.1265 µM) was 0.947. For the same compound, the relative viability (A-427; first compound 0.4 µM) was 0.658, the relative viability (A-427; first compound 1.265 µM) was 0.691 and the relative viability (A-427; first compound 4 µM) was 0.516. It also gave a relative viability (EKVX; first compound 0.04 µM) of 0.713, a relative viability (EKVX; first compound 0.1265 µM) of 0.749 and a relative viability (EKVX; first compound 0.4 µM) of 0.938. For the same compound, the relative viability (EKVX; first compound 1.265 µM) was 0.707, the relative viability (EKVX; first compound 4 µM) was 0.489 and the relative viability (NCI-H520; first compound 0.04 µM) was 0.97. For the same compound, the relative viability (NCI-H520; first compound 0.1265 µM) was 0.997, the relative viability (NCI-H520; first compound 0.4 µM) was 0.578 and the relative viability (NCI-H520; first compound 1.265 µM) was 0.368. It also gave a relative viability (NCI-H520; first compound 4 µM) of 0.166, a relative viability (NCI-H1563; first compound 0.04 µM) of 0.839 and a relative viability (NCI-H1563; first compound 0.1265 µM) of 0.764. The relative viability (NCI-H1563; first compound 0.4 µM) was 0.881, the relative viability (NCI-H1563; first compound 1.265 µM) was 0.631 and the relative viability (NCI-H1563; first compound 4 µM) was 0.615. It also gave a relative viability (LOU-NH91; first compound 0.04 µM) of 0.719, a relative viability (LOU-NH91; first compound 0.1265 µM) of 0.693 and a relative viability (LOU-NH91; first compound 0.4 µM) of 0.531. The relative viability (LOU-NH91; first compound 1.265 µM) was 0.53, the relative viability (LOU-NH91; first compound 4 µM) was 0.419 and the relative viability (NCI-H1666; first compound 0.04 µM) was 0.771. The relative viability (NCI-H1666; first compound 0.1265 µM) was 0.841, the relative viability (NCI-H1666; first compound 0.4 µM) was 0.669 and the relative viability (NCI-H1666; first compound 1.265 µM) was 0.451. The relative viability (NCI-H1666; first compound 4 µM) was 0.481, the relative viability (NCI-H441; first compound 0.04 µM) was 0.813 and the relative viability (NCI-H441; first compound 0.1265 µM) was 0.616. It also gave a relative viability (NCI-H441; first compound 0.4 µM) of 0.713, a relative viability (NCI-H441; first compound 1.265 µM) of 0.297 and a relative viability (NCI-H441; first compound 4 µM) of 0.221. It also gave a relative viability (NCI-H1755; first compound 0.04 µM) of 0.899, a relative viability (NCI-H1755; first compound 0.1265 µM) of 0.854 and a relative viability (NCI-H1755; first compound 0.4 µM) of 0.901. For the same compound, the relative viability (NCI-H1755; first compound 1.265 µM) was 0.67, the relative viability (NCI-H1755; first compound 4 µM) was 0.608 and the relative viability (NCI-H1734; first compound 0.04 µM) was 0.696. For the same compound, the relative viability (NCI-H1734; first compound 0.1265 µM) was 0.659, the relative viability (NCI-H1734; first compound 0.4 µM) was 0.569 and the relative viability (NCI-H1734; first compound 1.265 µM) was 0.449. For the same compound, the relative viability (NCI-H1734; first compound 4 µM) was 0.331, the relative viability (ChaGo-K-1; first compound 0.04 µM) was 1.04 and the relative viability (ChaGo-K-1; first compound 0.4 µM) was 0.689. It also gave a relative viability (ChaGo-K-1; first compound 1.265 µM) of 0.513, a relative viability (ChaGo-K-1; first compound 4 µM) of 0.387 and a relative viability (LK-2; first compound 0.04 µM) of 0.208. For the same compound, the relative viability (LK-2; first compound 0.1265 µM) was 0.224, the relative viability (LK-2; first compound 0.4 µM) was 0.212 and the relative viability (LK-2; first compound 1.265 µM) was 0.232. For the same compound, the relative viability (LK-2; first compound 4 µM) was 0.198.
